# Test results taken from a melting point compilation (Tetko et al.; mined from patent text by program, amines drawn as free bases though some values may be those of a salt).
row,Compound,melting point
1,CC(NC(=O)OC(C)(C)C)C(=O)NC1CCN(c2c(F)cc3c(=O)c(C(=O)O)cn(C4CC4)c3c2F)C1 (stereo not drawn),185 to 187 °C
2,CN(C)c1ccc(C(=O)Nc2nc(-c3ccco3)c(C(=O)C3CCOCC3)s2)cc1,238 to 240 °C
3,CCCCc1nn(-c2ccccc2C(F)(F)F)c(=O)n1Cc1ccc(-c2ccccc2S(=O)(=O)NC(C)(C)C)cc1,168 to 170 °C
4,Cc1ccc(-c2c(-c3ccc(S(C)(=O)=O)cc3)[nH]c3ccccc23)cc1,197 to 198 °C
5,OC(c1ccc(Cl)cc1)(c1ccc(Cl)cc1)c1nnc[nH]1,233 to 234 °C
6,CCCCCCCCCCCCCCCCCCOCC(O)Cn1cnc2c(N)ncnc21 (stereo not drawn),151 to 152 °C
7,Cc1c(-c2ccccc2)oc2c(C(=O)O)cccc12,220 to 222 °C
8,Cc1coc2c1C(=O)CC(c1ccccc1F)C2 (stereo not drawn),71 to 72 °C
9,COc1ccc(-c2ccc3c(c2)C(C)(C)OC(=O)N3)cc1F,210 to 211 °C
10,COc1ccc(-c2cc(=O)c(C(=O)O)cn2C2CC2)cc1,159 to 161 °C
11,O=C1NCc2ccccc2N1C1CCNCC1,153 to 155 °C
12,O=C(Nc1ccc2ccc(-c3ccc(F)cc3)nc2n1)c1ccc(C(F)(F)F)cc1,198 °C
13,CCOCCOc1ccc(-c2ccc3c(c2)C=C(C(=O)Nc2ccc(CN(C)C4CCOCC4)cc2)CCS3(=O)=O)cc1,215 to 217 °C
14,NC(=O)N1CCC(Oc2ccc([N+](=O)[O-])cc2)(c2ccccc2)CC1,203 to 206 °C
15,CC(=O)N[C@@H]1c2cnccc2OC(C)(C)[C@H]1O (relative stereo),208 to 210 °C
16,C[C@]1(COc2ccc(N3CCN(C(=O)c4ccc(OC(F)(F)F)cc4)CC3)cc2)Cn2cc([N+](=O)[O-])nc2O1,202 to 203 °C
17,COCCc1sc2ncnc(N)c2c1-c1ccc(NS(=O)(=O)c2ccccc2)cc1,206 to 208 °C

row,Compound,melting point
1,CC[C@H]1[C@H](O)CC(=O)N1c1ccc(C#N)c(C(F)(F)F)c1,111 to 112 °C
2,COc1ccc(N2CCOCC2)c2sc(-c3nc4ccc(N(C)C)nc4[nH]3)nc12,120 to 130 °C
3,CN(C(=O)c1cnn(C)c1C(=O)Nc1ccn2nc(N3CCOCC3)nc2c1)C1CCCC1,222 to 224 °C
4,O=C(c1ccc(Cc2ccc(F)cc2)o1)c1oc(CO)cc(=O)c1OCc1ccccc1,104 to 106 °C
5,COc1ccc(-c2ocnc2-c2cc(OC)c(OC)c(OC)c2)cc1F,139 to 140 °C
6,CCCCCCCCCCCCCCCCNC(=O)c1cc(OCCN=C=S)c2ccccc2c1O,90 to 91 °C
7,OCC1Cc2c([nH]c3ccccc23)CN1C(=S)S (stereo not drawn),225 to 227 °C
8,COC1OCC[C@@H]1NC(=O)[C@H](CC(C)C)NC(=O)[C@H](CC(C)C)NC(=O)OCc1ccccc1 (stereo partly drawn),76 to 77 °C
9,O=C(O)COc1c(I)cc(-c2c3ccccc3cc3sc4ccccc4c23)cc1I,250 to 252 °C
10,CCCCC(=O)Nc1ccc(Cl)c(-n2nc(CCCC)c(Cc3ccc(-c4ccccc4S(=O)(=O)NC(=O)c4ccccc4Cl)cc3F)c2C#N)c1,> 95 °C
11,CCOC(=O)C1=C(C)N(C)C(C)=C(C(=O)OC)C1c1ccccc1C#N (stereo not drawn),175 °C
12,O=C(O)c1cn(C2CCC2)c2c(F)c(F)c(F)cc2c1=O,192 to 194 °C
13,c1ccc2c(c1)-c1nccc3ccnc-2c13,152 to 153 °C
14,CN(C)c1cccc(CSC2NC(=S)NC2(C)C)c1 (stereo not drawn),178 to 179 °C
15,Cc1nc2ccc(N)cc2c(=O)n1C1CCC(=O)NC1=O (stereo not drawn),314 to 316 °C
16,CCN1C(=O)CCCc2c1ccc(Nc1ncc(Cl)c(Nc3ccc(N4CCOCC4)cc3OC)n1)c2OC,210 to 212 °C
17,COc1ccc2c(c1)C(=NN)Cc1c(C#N)cccc1S2,186 to 187 °C

# The next lines start with the values.
row,melting point,Compound
1,60 to 62 °C,CCOC(=O)C(CCCCCc1ccc(Cl)cc1)NS(C)(=O)=O (stereo not drawn)
2,148 °C,CCOC(=O)c1cn(CC)c2nc(SC)ncc2c1=O
3,98 °C,O=C(CCC(=O)N(CCO)CCO)c1ccccc1
4,128 to 129 °C,COCC(C)Nc1cc(-c2ccnc(Nc3cccc(Cl)c3)n2)cc(Cl)n1 (stereo not drawn)
5,114 to 116 °C,COC(=O)CC(c1ccc(OC)c(OC)c1)N1C(=O)c2ccccc2C1=O (stereo not drawn)
6,169 to 171 °C,Cc1[nH]c2ccc(F)cc2c1C(=O)Nc1ccc(N2CCC(O)CC2)c(C#N)c1
7,166 to 173 °C,CC(C)(N)c1ccc(-c2nc(Nc3ccc(CCN4CCOCC4)cc3)ncc2Cl)cc1
8,249 to 250 °C,O=C1Nc2ccc(F)cc2Nc2sc3ccccc3c21
9,161 to 162 °C,COc1cc2c(cc1OC(C)=O)CCC1C2CCC2(C)C1C=CC21OCCO1 (stereo not drawn)
10,101 to 102 °C,Nc1c([N+](=O)[O-])ccc(Oc2cccc(Cl)c2)c1Cl
11,189 to 192 °C,O=C(Oc1cc(Cl)ccc1Cl)c1cc2ccccc2oc1=O
12,158 to 159 °C,O=C(O)CCCCCCCOc1nc(-c2ccccc2)c(-c2ccccc2)n1-c1ccccc1
13,188 to 190 °C,CC(C)SC(=S)N1Cc2[nH]c3ccccc3c2CC1C(=O)O (stereo not drawn)
14,191 to 194 °C,COc1ccc(-n2nc(Cl)cc2-c2ccc(S(C)(=O)=O)cc2)cc1C#N
15,279 to 280 °C,COc1cc(OC)c2c(=O)[nH]c(-c3ccc(N4C[C@@H](C)N(C(C)=O)[C@@H](C)C4)cc3)nc2n1
16,187 °C,O=C1Nc2ncccc2CN1C1CCN(Cc2ccccc2)CC1
17,270 to 275 °C,O=C1COc2cc(Nc3ccc(O)cc3)ccc2N1

row,melting point,Compound
1,151 to 152 °C,CCCN1CCc2ccc(C(=O)CCC(=O)N3CCC(c4ccc(Cl)cc4)CC3)cc2CC1
2,186 to 187 °C,CCCCc1ncc(/C=C(\Cc2cccs2)C(=O)O)n1Cc1ccccc1OC
3,206 °C,O=C(O)Cc1c([N+](=O)[O-])ccc2c1O[C@@H](CNCc1ccccc1)CO2
4,104 to 105 °C,CC(C)(C)OC(=O)Nc1ccc(CCO)cc1
5,174 to 175 °C,N#Cc1ncn2c1N(C(=O)CN1CCC(c3ccccc3)CC1)CC=C2c1cccc(C(F)(F)F)c1
6,> 300 °C,CC(c1nnc2c(=O)[nH]c3cc(C(F)(F)F)c(Br)cc3n12)P(=O)(O)O (stereo not drawn)
7,124 to 125 °C,CN1CCC(O)(C(c2cc(Cl)ccc2F)n2cccc2)CC1 (stereo not drawn)
8,105 to 110 °C,OCC1OC(n2cnc3c(NC4CC=CCC4c4cccs4)ncnc32)C(O)C1O (stereo not drawn)
9,300 °C,Nc1nc(O)nc(Cl)n1
10,201 °C,Cc1ccncc1-c1cncc(OC2SCC(O)C(O)C2O)c1 (stereo not drawn)
11,142 to 144 °C,Cc1c(C)c(N2CCN(c3ccccc3)CC2)c(C)c2c1OC(C)(C)C2O (stereo not drawn)
12,185 to 186 °C,CSc1cc2cc(C)ccc2cc1C=Cc1cc2ccc(C)cc2cc1SC
13,162 to 164 °C,COc1ccc(-c2nc(S(=O)c3ccc(C)cc3)n(C3CCCCO3)c2-c2ccc(OC)cc2)cc1 (stereo not drawn)
14,155 to 157 °C,O=C(NS(=O)(=O)c1ccc(O)cc1)c1ccc(Cl)cc1Cl
15,167 to 168 °C,CCCN(CCC)C(=O)C1Cc2ccccc2N1c1nc(-c2ccccc2)nc(C)c1C (stereo not drawn)
16,147 to 148 °C,CC(=O)Nc1ccc2nc(CN(C(C)C)C(C)C)ccc2c1
17,210 to 211 °C,O=C(O)COc1cc(F)c(-c2ccccc2)cc1C(=O)NCc1cccc([N+](=O)[O-])c1
